Assay results published in article PMC12441834, “Highly Potent and Subtype-Selective Sperm-Specific Potassium Channel SLO3 Inhibitors Display High Tissue Exposure in the Murine Female Reproductive Tract” (ACS Pharmacology & Translational Science, 2025).
Like-named read-outs stand apart in the source and are kept apart here.

Experiments:
[1] = molecular target: T1, mouse SLO3 (KSper currents in mouse sperm) (Mus musculus, UniProt O54982); experiment: Whole-cell recording of KSper currents in mouse sperm; type: cell-based; details: for Hill coefficient: mouse sperm KSper currents; for IC50: whole-cell recordings from mouse sperm
T1 construct: sperm were isolated from the corpus epididymis by swim-out; endogenous in cells; host or cells: C57Bl/6 mouse corpus epididymal sperm
T1 sequence (O54982 1-1121): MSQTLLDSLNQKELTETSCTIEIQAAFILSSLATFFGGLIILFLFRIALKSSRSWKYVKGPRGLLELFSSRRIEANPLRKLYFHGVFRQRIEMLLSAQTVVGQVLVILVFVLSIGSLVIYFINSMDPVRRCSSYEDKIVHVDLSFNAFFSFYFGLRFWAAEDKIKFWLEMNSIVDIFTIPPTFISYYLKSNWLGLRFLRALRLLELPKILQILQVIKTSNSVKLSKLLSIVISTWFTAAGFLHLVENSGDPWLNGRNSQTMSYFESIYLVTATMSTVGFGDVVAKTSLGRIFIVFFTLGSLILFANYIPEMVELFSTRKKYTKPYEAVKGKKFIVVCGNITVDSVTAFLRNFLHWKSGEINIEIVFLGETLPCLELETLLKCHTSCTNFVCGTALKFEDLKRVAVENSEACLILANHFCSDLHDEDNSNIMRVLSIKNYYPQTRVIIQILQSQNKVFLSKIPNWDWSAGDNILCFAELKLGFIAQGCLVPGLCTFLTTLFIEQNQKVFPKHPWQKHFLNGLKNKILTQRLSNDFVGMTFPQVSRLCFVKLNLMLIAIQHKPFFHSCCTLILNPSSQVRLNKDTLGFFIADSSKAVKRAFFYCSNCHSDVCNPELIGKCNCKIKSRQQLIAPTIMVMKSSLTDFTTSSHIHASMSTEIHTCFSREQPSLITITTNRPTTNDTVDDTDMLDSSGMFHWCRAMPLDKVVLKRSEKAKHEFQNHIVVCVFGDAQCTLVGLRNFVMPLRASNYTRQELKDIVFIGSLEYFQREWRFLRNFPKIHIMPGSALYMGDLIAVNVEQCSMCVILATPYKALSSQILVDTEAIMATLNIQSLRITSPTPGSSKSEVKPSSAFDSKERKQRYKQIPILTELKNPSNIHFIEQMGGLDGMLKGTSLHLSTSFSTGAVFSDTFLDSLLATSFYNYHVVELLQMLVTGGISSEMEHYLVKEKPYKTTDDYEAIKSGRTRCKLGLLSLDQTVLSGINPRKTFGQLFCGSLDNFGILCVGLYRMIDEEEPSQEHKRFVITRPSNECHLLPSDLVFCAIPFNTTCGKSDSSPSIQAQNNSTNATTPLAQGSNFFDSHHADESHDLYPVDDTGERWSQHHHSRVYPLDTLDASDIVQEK
T1 sequence (Q5M8M9 24-314 partner): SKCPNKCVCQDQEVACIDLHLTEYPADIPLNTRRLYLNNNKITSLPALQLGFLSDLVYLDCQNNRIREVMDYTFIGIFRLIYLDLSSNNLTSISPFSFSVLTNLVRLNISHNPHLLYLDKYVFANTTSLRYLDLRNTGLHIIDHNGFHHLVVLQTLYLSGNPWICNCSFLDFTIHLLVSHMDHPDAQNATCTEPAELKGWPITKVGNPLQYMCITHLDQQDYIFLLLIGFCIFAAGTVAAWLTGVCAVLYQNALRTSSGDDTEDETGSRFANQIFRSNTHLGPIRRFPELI
Procedure: Electrophysiology: C57Bl/6 sexually mature male mice (60–90 days old) were euthanized by inhalation of CO2 followed by cervical dislocation and sperm were isolated from the corpus epididymis by swim-out. Then the sperm suspension was collected and centrifuged (500×g, 6 min) twice to purify the sperm. HEPES-buffered saline (HS) was used for sperm swim-out and storage. It contained (in mM): 135 NaCl, 5 KCl, 1 MgSO4, 2 CaCl2, 20 HEPES, 5 glucose, 10 lactic acid, and 1 Na·pyruvate at pH 7.4. The sperm suspension was kept at room temperature (∼22 °C) for 4–6 h until recording. All animal husbandry and experimental procedures were approved by the Animal Studies Committee of the Washington University in St. Louis School of Medicine.
Voltage-clamp recordings were performed using an Axopatch 200B amplifier (Molecular Devices). Recordings were filtered at 5 kHz with the internal filter of the amplifier and digitized at 50 kHz using a Digidata 1550B digitizer (Molecular Devices). Recording pipettes were pulled from borosilicate glass with tip resistances of 3–8 MΩ after filling with pipette solution containing (in mM): 140 KMES, 1 EGTA, 10 HEPES, pH 7.4 with KOH. Bath solutions contained (in mM): 135 NaMES, 5 KMES, 2 MgCl2, and 10 HEPES, pH 7.4 with NaOH. Experiments were performed at room temperature (∼22 °C). Whole-cell currents were evoked from a holding potential of −60 mV in steps from −80 to +100 mV in 10 mV increments. Test compounds were prepared daily from a 10 mM stock solution (in DMSO).
For mouse sperm recordings, the pipettes were fire-polished with Microforge MF-830 (Narishige, Japan) to reach tip resistances of 8–12 MΩ. The giga-ohm (GΩ) seals were formed between the glass micropipette and the sperm cytoplasmic droplet in HS solution. Break-in to whole-cell mode was achieved by applying short (1–5 ms) voltage pulses of 488–888 mV.
Data were analyzed with a pClamp 10.6 (Molecular Devices). VU6047606 and VU6032735 inhibition dose–response relationships were fit by the Hill equation in OriginPro 7.5 (OriginLab Corporation): R=1/1+(C/IC50)^n+Ioff , in which R is fractional unblock, C is compound concentration, IC50 is the half inhibition concentration, n is the Hill coefficient, and I off is an offset item for leak current. Error bars in the figures represent the SDs. Each data point is averaged from at least 5 measurements. Curve-fitting results are reported as the fitted values with standard error, which was estimated by OriginPro according to the Error Propagation formula.

[2] = system: Calcium Channel L-Type, Benzothiazepine; experiment: LeadProfilingScreen radioligand binding; parameters: species or system rat
[3] = molecular target: Glutamate, NMDA, Glycine (Rattus norvegicus, UniProt P35439); experiment: LeadProfilingScreen radioligand binding
Chain of Glutamate, NMDA, Glycine (P35439 394-800 limits assumed): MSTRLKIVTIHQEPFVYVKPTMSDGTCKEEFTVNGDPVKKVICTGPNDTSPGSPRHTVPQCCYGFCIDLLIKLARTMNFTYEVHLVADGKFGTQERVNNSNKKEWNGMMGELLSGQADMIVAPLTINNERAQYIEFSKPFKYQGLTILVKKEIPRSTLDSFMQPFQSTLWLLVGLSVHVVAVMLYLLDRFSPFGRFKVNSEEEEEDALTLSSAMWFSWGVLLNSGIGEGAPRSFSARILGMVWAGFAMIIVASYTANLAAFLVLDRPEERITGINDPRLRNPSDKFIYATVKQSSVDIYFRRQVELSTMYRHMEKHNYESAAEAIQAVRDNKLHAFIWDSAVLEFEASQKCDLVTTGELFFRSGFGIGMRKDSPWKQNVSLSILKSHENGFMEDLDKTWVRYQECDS

[4] = molecular target: Muscarinic M2 (Homo sapiens, UniProt P08172); experiment: LeadProfilingScreen radioligand binding
Chain of Muscarinic M2 (P08172 whole entry): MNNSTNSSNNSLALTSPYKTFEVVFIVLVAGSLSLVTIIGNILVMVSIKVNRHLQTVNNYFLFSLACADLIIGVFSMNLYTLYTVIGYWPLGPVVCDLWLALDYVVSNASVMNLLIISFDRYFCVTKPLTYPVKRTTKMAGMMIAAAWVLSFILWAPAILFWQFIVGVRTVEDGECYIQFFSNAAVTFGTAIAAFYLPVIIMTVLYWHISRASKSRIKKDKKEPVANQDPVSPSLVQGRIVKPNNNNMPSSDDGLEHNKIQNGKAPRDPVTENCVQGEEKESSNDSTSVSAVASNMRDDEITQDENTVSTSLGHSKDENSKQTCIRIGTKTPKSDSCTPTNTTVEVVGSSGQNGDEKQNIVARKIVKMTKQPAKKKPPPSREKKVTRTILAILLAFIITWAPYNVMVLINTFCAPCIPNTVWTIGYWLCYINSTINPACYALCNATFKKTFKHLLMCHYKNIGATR

[5] = molecular target: Endothelin ETB (Homo sapiens, UniProt P24530); experiment: LeadProfilingScreen radioligand binding
Chain of Endothelin ETB (P24530 27-442): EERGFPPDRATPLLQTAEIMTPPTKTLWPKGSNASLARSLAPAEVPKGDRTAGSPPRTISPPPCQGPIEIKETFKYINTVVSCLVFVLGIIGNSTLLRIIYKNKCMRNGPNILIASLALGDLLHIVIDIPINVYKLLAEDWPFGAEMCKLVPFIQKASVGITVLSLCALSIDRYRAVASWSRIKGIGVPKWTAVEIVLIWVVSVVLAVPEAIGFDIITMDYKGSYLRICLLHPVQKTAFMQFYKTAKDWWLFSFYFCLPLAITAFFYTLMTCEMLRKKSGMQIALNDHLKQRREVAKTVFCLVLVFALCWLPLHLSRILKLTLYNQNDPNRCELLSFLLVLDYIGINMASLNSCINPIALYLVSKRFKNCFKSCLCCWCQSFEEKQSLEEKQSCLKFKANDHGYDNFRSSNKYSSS

[6] = molecular target: Nicotinic Acetylcholine α1, Bungarotoxin (Homo sapiens, UniProt P02708+P07510+Q07001); experiment: biochemical; type: binding; details: read-out: % inhibition at 10 μM
Chain of Nicotinic Acetylcholine α1, Bungarotoxin (P02708 21-457): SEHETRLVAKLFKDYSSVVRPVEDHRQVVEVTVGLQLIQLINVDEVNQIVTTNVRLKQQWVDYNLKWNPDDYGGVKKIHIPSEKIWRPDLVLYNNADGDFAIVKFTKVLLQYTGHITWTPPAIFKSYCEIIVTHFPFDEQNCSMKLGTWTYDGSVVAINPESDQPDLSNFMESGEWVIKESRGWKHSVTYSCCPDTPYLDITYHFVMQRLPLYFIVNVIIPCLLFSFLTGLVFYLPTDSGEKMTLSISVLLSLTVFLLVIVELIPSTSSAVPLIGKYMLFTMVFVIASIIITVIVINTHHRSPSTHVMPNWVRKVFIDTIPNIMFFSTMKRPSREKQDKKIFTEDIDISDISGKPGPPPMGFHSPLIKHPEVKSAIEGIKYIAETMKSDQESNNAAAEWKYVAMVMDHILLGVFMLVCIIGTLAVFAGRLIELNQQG
Chain of Nicotinic Acetylcholine α1, Bungarotoxin (P07510 23-517): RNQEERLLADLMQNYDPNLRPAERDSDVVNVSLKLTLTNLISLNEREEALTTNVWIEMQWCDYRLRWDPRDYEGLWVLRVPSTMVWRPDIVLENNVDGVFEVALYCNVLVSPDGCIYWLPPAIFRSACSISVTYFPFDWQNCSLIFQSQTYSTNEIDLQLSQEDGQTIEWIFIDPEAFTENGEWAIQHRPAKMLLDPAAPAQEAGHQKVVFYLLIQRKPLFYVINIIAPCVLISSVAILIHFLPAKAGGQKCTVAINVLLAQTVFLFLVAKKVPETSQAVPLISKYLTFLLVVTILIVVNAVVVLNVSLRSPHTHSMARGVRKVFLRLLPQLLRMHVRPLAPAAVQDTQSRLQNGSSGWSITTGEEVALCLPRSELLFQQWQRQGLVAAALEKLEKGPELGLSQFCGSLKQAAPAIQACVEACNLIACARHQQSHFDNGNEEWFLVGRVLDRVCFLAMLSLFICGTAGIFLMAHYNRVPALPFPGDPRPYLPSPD
Chain of Nicotinic Acetylcholine α1, Bungarotoxin (Q07001 22-517): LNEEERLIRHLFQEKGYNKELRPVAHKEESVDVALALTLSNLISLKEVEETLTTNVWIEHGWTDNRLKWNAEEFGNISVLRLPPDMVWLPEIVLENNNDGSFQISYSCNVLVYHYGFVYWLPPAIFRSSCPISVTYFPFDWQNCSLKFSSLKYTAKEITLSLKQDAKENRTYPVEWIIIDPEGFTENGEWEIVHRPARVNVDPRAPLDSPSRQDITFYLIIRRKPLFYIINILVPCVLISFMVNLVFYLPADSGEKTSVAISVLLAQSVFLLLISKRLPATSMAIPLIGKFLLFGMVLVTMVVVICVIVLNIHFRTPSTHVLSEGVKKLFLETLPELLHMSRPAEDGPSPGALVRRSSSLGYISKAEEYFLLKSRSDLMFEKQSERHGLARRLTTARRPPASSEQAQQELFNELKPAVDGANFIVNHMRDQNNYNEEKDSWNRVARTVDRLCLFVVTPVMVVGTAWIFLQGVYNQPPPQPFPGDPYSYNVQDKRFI
Chain of Nicotinic Acetylcholine α1, Bungarotoxin (P11230 24-501, further chain): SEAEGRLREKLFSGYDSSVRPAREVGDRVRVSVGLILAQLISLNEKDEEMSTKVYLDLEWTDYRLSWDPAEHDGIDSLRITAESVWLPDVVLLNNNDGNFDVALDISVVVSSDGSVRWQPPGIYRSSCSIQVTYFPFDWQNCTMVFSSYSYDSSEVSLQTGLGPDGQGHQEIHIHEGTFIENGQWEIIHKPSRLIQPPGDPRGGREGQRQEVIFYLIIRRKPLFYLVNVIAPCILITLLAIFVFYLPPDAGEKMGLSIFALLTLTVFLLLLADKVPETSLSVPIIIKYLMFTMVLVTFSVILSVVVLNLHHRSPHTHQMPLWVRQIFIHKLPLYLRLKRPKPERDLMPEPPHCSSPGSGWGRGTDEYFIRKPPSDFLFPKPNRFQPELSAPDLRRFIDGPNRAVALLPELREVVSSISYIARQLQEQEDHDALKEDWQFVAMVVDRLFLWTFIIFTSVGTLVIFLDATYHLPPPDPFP

[7] = molecular target: Muscarinic M3 (Homo sapiens, UniProt P20309); experiment: LeadProfilingScreen radioligand binding
Chain of Muscarinic M3 (P20309 whole entry): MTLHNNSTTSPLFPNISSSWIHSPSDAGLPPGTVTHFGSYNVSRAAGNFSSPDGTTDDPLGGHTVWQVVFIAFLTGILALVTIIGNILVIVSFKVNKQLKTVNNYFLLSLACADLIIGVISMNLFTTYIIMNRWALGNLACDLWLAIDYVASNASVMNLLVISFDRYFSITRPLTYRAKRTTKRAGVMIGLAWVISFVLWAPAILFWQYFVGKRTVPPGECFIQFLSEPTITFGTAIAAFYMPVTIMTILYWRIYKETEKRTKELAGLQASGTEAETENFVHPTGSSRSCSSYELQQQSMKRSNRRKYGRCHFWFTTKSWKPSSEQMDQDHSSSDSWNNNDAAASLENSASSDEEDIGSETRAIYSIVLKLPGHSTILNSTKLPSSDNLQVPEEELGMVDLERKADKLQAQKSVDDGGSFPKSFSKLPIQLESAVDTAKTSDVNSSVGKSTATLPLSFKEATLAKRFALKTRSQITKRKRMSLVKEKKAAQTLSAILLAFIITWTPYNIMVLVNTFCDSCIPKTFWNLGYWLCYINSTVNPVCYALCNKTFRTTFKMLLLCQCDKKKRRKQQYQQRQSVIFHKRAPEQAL

[8] = molecular target: Tachykinin NK1 (Homo sapiens, UniProt P25103); experiment: LeadProfilingScreen radioligand binding
Chain of Tachykinin NK1 (P25103 whole entry): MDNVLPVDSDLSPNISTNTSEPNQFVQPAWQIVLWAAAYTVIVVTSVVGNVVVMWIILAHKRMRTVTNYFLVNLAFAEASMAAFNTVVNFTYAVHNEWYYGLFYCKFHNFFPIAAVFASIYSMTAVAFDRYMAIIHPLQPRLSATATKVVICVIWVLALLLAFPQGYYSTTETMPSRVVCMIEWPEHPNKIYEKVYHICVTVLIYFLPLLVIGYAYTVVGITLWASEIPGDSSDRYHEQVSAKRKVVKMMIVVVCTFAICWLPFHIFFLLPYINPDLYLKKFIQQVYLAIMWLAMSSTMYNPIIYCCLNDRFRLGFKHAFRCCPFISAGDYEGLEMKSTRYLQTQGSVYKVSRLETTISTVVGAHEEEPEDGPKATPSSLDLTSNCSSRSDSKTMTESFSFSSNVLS

[9] = molecular target: Endothelin ETA (Homo sapiens, UniProt P25101); experiment: LeadProfilingScreen radioligand binding
Chain of Endothelin ETA (P25101 21-427): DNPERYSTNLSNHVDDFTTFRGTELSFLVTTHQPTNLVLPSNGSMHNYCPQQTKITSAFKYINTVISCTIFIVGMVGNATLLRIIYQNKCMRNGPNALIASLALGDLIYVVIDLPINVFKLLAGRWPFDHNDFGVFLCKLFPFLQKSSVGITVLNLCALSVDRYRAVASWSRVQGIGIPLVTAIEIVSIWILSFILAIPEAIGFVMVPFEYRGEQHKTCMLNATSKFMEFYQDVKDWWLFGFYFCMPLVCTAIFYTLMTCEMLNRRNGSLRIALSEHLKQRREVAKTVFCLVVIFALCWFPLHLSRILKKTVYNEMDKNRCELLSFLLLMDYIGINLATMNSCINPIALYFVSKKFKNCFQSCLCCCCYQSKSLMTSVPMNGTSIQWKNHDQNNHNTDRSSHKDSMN

SMILES | fold more potent than VU6047606 on mouse SLO3 currents ([1]; mouse sperm) [fold] | Hill coefficient [1] | IC50 ([1]; read-out: mSLO3 IC50 (mouse sperm)) [nM] | % inhibition at 10 μM [2] [%] | inhibition at 10 µM [3] [%] | inhibition at 10 µM [4] [%] | inhibition at 10 µM [5] [%] | inhibition at 10 µM [6] [%] | inhibition at 10 µM [7] [%] | inhibition at 10 µM [8] [%] | inhibition at 10 µM [9] [%] | IC50 ([1]; currents at +100 mV, read-out: mSLO3 IC50 (mouse sperm KSper currents)) [nM]
O=C(c1ccc(OCc2ccc(OC(F)(F)F)cc2)cc1)N1CCN(c2ccc(C(F)(F)F)cn2)CC1 [VU6032735] | ~1.6 | 0.78 ± 0.07 | 910 | 67 | -3 | -10 | 1 | 2 | 7 | 7 | 9 | 
Cc1cc(Cl)cc2sc(O[C@H]3CCN(C(=O)CCCS(=O)(=O)c4cccc(Br)c4)C[C@H]3F)nc12 [VU6047606] |  | 1.02 ± 0.12 |  | 49 | -1 | -6 | 9 | 5 | 13 | 8 | 5 | 1470
